# Source: patent publication US20090093469A1, “Phenylaminopropanol Derivatives and Methods of Their Use” (WYETH, priority 2004, published 2009)
# Counter-ions that a name gives are not always drawn.
# Biological target: T1, hNET (Homo sapiens, UniProt P23975)
# T1 construct: expressed in transfected cells
# Assay: Norepinephrine (NE) uptake assay in MDCK-Net6 cells stably transfected with human hNET
# Format: cell-based
# Settings: MDCK-Net6, read-out: % Inhibition @ 1 μM (hNET)
# T1 sequence (P23975 whole entry): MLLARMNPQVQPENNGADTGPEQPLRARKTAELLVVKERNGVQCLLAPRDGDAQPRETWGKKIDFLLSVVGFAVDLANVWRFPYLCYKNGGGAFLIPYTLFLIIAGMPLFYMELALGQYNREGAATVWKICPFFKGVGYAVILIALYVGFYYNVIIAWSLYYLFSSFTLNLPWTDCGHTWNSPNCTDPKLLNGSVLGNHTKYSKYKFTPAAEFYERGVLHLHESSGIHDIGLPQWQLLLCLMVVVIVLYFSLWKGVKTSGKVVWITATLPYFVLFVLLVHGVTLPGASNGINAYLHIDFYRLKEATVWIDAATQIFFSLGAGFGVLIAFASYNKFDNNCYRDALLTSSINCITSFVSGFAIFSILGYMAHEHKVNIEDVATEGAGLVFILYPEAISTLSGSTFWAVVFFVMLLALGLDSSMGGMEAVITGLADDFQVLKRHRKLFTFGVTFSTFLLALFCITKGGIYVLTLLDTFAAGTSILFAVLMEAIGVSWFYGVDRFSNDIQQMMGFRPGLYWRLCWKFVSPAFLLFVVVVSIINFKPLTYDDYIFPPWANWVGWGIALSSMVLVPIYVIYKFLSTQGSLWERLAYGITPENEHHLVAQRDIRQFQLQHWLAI
row,SMILES,inhibition at 1 µM
1,"CNC[C@@H](O)[C@H](c1cccc(F)c1)n1ccc2ccccc21 [Example 47, (1S,2R)-1-(3-fluorophenyl)-1-(1H-indol-1-yl)-3-(methylamino)propan-2-ol hydrochloride]",99.9%
2,"CNC[C@@H](O)[C@H](c1cccc(F)c1)n1cc(C)c2ccccc21 [Example 143, (1S,2R)-1-(3-fluorophenyl)-3-(methylamino)-1-(3-methyl-1H-indol-1-yl)propan-2-ol hydrochloride]",96.8%
3,"CNC[C@@H](O)[C@H](c1cccc(F)c1)n1ccc2cccc(Cl)c21 [Example 149, (1S,2R)-1-(7-chloro-1H-indol-1-yl)-1-(3-fluorophenyl)-3-(methylamino)propan-2-ol hydrochloride]",100%
4,"CNC[C@H](O)[C@H](c1cccc(F)c1)n1ccc2ccccc21 [Example 139, (1S,2S)-1-(3-fluorophenyl)-1-(1H-indol-1-yl)-3-(methylamino)propan-2-ol hydrochloride]",94.9%
5,"CNC[C@@H](O)[C@H](c1cccc(F)c1)n1ccc2c(Br)cccc21 [Example 125, (1S,2R)-1-(4-bromo-1H-indol-1-yl)-1-(3-fluorophenyl)-3-(methylamino)propan-2-ol hydrochloride]",94.3%
6,"CNC[C@@H](O)[C@H](c1cccc(F)c1)n1ccc2cc(Br)ccc21 [Example 127, (1S,2R)-1-(5-bromo-1H-indol-1-yl)-1-(3-fluorophenyl)-3-(methylamino)propan-2-ol hydrochloride]",95.7%
7,"CNC[C@@H](O)[C@H](c1cccc(F)c1)n1c(=O)n(C(C)C)c2cccc(F)c21 [Example 208, 4-fluoro-3-[(1S,2R)-1-(3-fluorophenyl)-2-hydroxy-3-(methylamino)-propyl]-1-isopropyl-1,3-dihydro-2H-benzimidazol-2-one hydrochloride]",99.8%
8,"CNC[C@@H](O)[C@H](c1ccc(C)cc1)n1ccc2ccccc21 [Example 59, (1S,2R)-1-(1H-indol-1-yl)-3-(methylamino)-1-(4-methylphenyl)propan-2-ol hydrochloride]",93.2%
9,"CNC[C@@H](O)[C@H](c1cccc(F)c1)n1ccc2cccc(Br)c21 [Example 135, (1S,2R)-1-(7-bromo-1H-indol-1-yl)-1-(3-fluorophenyl)-3-(methylamino)propan-2-ol hydrochloride]",99.5%

# Same assay, conditions: hydrochloride, 1 µM
row,SMILES,% Inhibition @ 1 μM (hNET)
1,"CNC[C@H](O)[C@H](c1ccccc1)n1ccc2ccccc21 (stereo in doubt) [Example 30, (1S,2S)-1-(1H-indol-1-yl)-3-(methylamino)-1-phenylpropan-2-ol hydrochloride]",79.7%

# Same assay, conditions: test compound 1 μM; [3H]NE uptake, MDCK-Net6 cells; read-out: % Inhibition @ 1 μM (hNET)
row,inhibition at 1 µM,SMILES
1,97.9%,"CNC[C@@H](O)[C@H](c1cccc(C(F)(F)F)c1)N1CCc2ccccc21 [Example 138, (1S,2R)-1-(2,3-dihydro-1H-indol-1-yl)-3-(methylamino)-1-[3-(trifluoromethyl)phenyl]propan-2-ol hydrochloride]"
2,98.9%,"CNC[C@@H](O)[C@H](c1cccc(F)c1)n1cc(C(C)C)c2ccccc21 [Example 155, (1S,2R)-1-(3-fluorophenyl)-1-(3-isopropyl-1H-indol-1-yl)-3-(methylamino)propan-2-ol hydrochloride]"
3,77.3%,"CNC[C@@H](O)[C@H](c1ccccc1)n1ccc2cccc(OC)c21 [Example 77, (1S,2R)-1-(7-methoxy-1H-indol-1-yl)-3-(methylamino)-1-phenylpropan-2-ol hydrochloride]"
4,57.6%,"CNC[C@@H](O)[C@H](c1ccc(OC(F)(F)F)cc1)n1ccc2ccccc21 (single isomer, unassigned) [Example 40, hydrochloride]"
5,17.5%,"CCCNC[C@@H](O)[C@H](c1cccc(F)c1)n1ccc2ccccc21 [Example 57, (1S,2R)-1-(3-fluorophenyl)-1-(1H-indol-1-yl)-3-(propylamino)propan-2-ol hydrochloride]"
6,85.8%,"O[C@H]([C@@H]1CCCN1)[C@H](c1cccc(F)c1)n1ccc2ccccc21 [Example 106, (1R,2S)-2-(3-fluorophenyl)-2-(1H-indol-1-yl)-1-[(2S)-pyrrolidin-2-yl]ethanol hydrochloride]"
7,101%,"CNC[C@@H](O)[C@H](c1ccc(F)cc1)n1cc(C)c2ccccc21 [Example 49, (1S,2R)-1-(4-fluorophenyl)-3-(methylamino)-1-(3-methyl-1H-indol-1-yl)propan-2-ol hydrochloride]"
8,99.8%,"CNC[C@@H](O)[C@H](c1ccccc1)n1cc(C)c2cccc(F)c21 [Example 179, (1S,2R)-1-(7-fluoro-3-methyl-1H-indol-1-yl)-3-(methylamino)-1-phenylpropan-2-ol hydrochloride]"
9,70.4%,"Cc1cn([C@@H](c2ccccc2)[C@H](O)CN)c2c(F)cccc12 [Example 180, (1S,2R)-3-amino-1-(7-fluoro-3-methyl-1H-indol-1-yl)-1-phenylpropan-2-ol hydrochloride]"
10,96.6%,"CNC[C@@H](O)[C@H](c1ccccc1)N1C(=O)C2(CCC2)c2ccccc21 [Example 107, 1′-[(1S,2R)-2-hydroxy-3-(methylamino)-1-phenylpropyl]spiro[cyclo-butane-1,3′-indol]-2′(1′H)-one hydrochloride]"
11,23.9%,"CNC[C@@H](O)[C@H](c1cccc(F)c1)n1cc(-c2ccc(Cl)c(Cl)c2)c2ccccc21 [Example 115, (1S,2R)-1-[3-(3,4-dichlorophenyl)-1H-indol-1-yl]-1-(3-fluorophenyl)-3-(methylamino)propan-2-ol hydrochloride]"
12,57.4%,"CNC[C@@H](O)[C@H](c1ccc(OC(F)(F)F)cc1)n1ccc2ccccc21 (racemic) [Example 39, (1RS,2SR)-1-(1H-indol-1-yl)-3-(methylamino)-1-[4-(trifluoromethoxy)phenyl]propan-2-ol hydrochloride]"
13,96.3%,"CNC[C@@H](O)[C@H](c1ccccc1)n1cc(C)c2cc(Cl)ccc21 [Example 119, (1S,2R)-1-(5-chloro-3-methyl-1H-indol-1-yl)-3-(methylamino)-1-phenylpropan-2-ol hydrochloride]"
14,24%,"CNC[C@@H](O)[C@H](c1ccccc1)n1cnc2ccccc21 (racemic) [Example 72, (1RS,2SR)-1-(1H-benzimidazol-1-yl)-3-(methylamino)-1-phenyl propan-2-ol hydrochloride]"
15,32.4%,"CNC[C@H](O)[C@@H](c1ccc(OC(F)(F)F)cc1)n1ccc2ccccc21 (single isomer, unassigned) [Example 41, hydrochloride]"
16,8.5%,"O[C@@H](CN1CCCCC1)[C@@H](c1ccccc1)n1ccc2cc(Cl)ccc21 (racemic) [Example 15, (1RS,2SR)-1-(5-chloro-1H-indol-1-yl)-1-phenyl-3-piperidin-1-ylpropan-2-ol hydrochloride]"
17,29.9%,"CNC[C@@H](O)[C@H](c1cccc(F)c1)n1cc(-c2cccc(C(F)(F)F)c2)c2ccccc21 [Example 177, (1S,2R)-1-(3-fluorophenyl)-3-(methylamino)-1-{3-[3-(trifluoromethyl)phenyl]-1H-indol-1-yl}propan-2-ol hydrochloride]"
18,42.7%,"OC(CNC1CC1)C(c1cccc(F)c1)n1ccc2ccccc21 (stereo in doubt) [Example 111, (1S,2R)-3-(cyclopropylamino)-1-(3-fluorophenyl)-1-(1H-indol-1-yl)propan-2-ol hydrochloride]"
19,4.6%,"CN1CCN(C[C@H](O)[C@@H](c2ccccc2)n2ccc3ccccc32)CC1 [Example 1, 1RS,2SR)-1-(1H-indol-1-yl)-3-(4-methylpiperazin-1-yl)-1-phenyl propan-2-ol dihydrochloride]"
20,100%,"CNC[C@@H](O)[C@H](c1cccc(F)c1)n1cc(-c2ccccc2OC)c2ccccc21 [Example 176, (1S,2R)-1-(3-fluorophenyl)-1-[3-(2-methoxyphenyl)-1H-indol-1-yl]-3-(methylamino)propan-2-ol hydrochloride]"
21,90.8%,"CNC[C@@H](O)[C@H](c1ccccc1)n1ccc2cccc(C)c21 [Example 91, (1S,2R)-3-(methylamino)-1-(7-methyl-1H-indol-1-yl)-1-phenylpropan-2-ol hydrochloride]"
22,76%,"CNC[C@@H](O)[C@H](c1ccccc1)n1ccc2cc(C#N)ccc21 [Example 130, 1-[(1S,2R)-2-hydroxy-3-(methylamino)-1-phenylpropyl]-1H-indole-5-carbonitrile hydrochloride]"
23,61.1%,"CCNC[C@@H](O)[C@H](c1cccc(F)c1)n1ccc2ccccc21 [Example 55, (1S,2R)-3-(ethylamino)-1-(3-fluorophenyl)-1-(1H-indol-1-yl)propan-2-ol hydrochloride]"
24,100%,"CNC[C@@H](O)[C@H](c1ccccc1)N1C(=O)C2(CCCCC2)c2cccc(F)c21 [Example 112, 7′-fluoro-1′-[(1S,2R)-2-hydroxy-3-(methylamino)-1-phenylpropyl]-spiro[cyclohexane-1,3′-indol]-2′(1′H)-one hydrochloride]"
25,71%,"NC[C@H](O)[C@@H](c1ccccc1)n1ccc2ccccc21 (racemic) [Example 17, (1RS,2SR)-3-amino-1-(1H-indol-1-yl)-1-phenylpropan-2-ol hydrochloride]"
26,82.3%,"CNC[C@@H](O)[C@H](c1ccccc1OC(F)(F)F)n1ccc2ccccc21 [Example 36, (1S,2R)-1-(1H-indol-1-yl)-3-(methylamino)-1-[2-(trifluoromethoxy)phenyl]propan-2-ol hydrochloride]"

# Same assay, conditions: test compound 10 μM (stated in cell); [3H]NE uptake, MDCK-Net6 cells
row,inhibition at 10 µM,SMILES
1,66.5%,"CN1CCN(C[C@H](O)[C@@H](c2ccccc2)n2ccc3cc(F)ccc32)CC1 (racemic) [Example 2, (1RS,2SR)-1-(5-fluoro-1H-indol-1-yl)-3-(4-methylpiperazin-1-yl)-1-phenylpropan-2-ol dihydrochloride]"
